The text below walks through data of PubChem BioAssay (NCI).

Among the test systems are SN12C renal; SF-268 CNS; NCI-H23 lung; UACC-257 melanoma; SW-620 colon; HOP-62 NSCLC; OVCAR-5 ovarian; MALME-3M melanoma; RXF 393 renal.
What all share (assay): growth of human tumour cells (NCI), 48 h

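Each compound was tested at five concentrations against cells in 96-well plates for 48 hours. Abbreviation: GI50, concentration required for 50% inhibition of growth. TGI denotes the concentration required for complete inhibition of growth.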

With `CC1=CCC2(C#N)CCC1C2=O` (stereo not drawn), the TGI in the experiment with SN12C renal, with SF-268 CNS, in the experiment on NCI-H23 lung, with UACC-257 melanoma, in the experiment on SW-620 colon and with HOP-62 NSCLC was over 100 µM in each case. Besides, the TGI with OVCAR-5 ovarian and in the experiment with MALME-3M melanoma was over 100 µM in each case.
On to `CC(C)OCN1COCN=C1NC#N`, for which the TGI in the experiment on SN12C renal was over 100 µM; in the experiment on SF-268 CNS, over 100 µM; with NCI-H23 lung, over 100 µM; in the experiment with UACC-257 melanoma it was over 100 µM; in the experiment on SW-620 colon, 34.8 µM; in the experiment on HOP-62 NSCLC it was over 100 µM. In addition, the TGI with RXF 393 renal, in the experiment on OVCAR-5 ovarian and in the experiment with MALME-3M melanoma was over 100 µM in each case.
As to `COc1ccc(C(=O)C(C(=O)C(=O)Nc2nc3ccc(OC)cc3s2)c2ccc(OC)cc2)cc1` (stereo not drawn), the TGI with SN12C renal, in the experiment on SF-268 CNS, in the experiment with NCI-H23 lung, in the experiment on UACC-257 melanoma, in the experiment on SW-620 colon and in the experiment with HOP-62 NSCLC was over 100 µM each time. For the same molecule, the TGI with OVCAR-5 ovarian and in the experiment on MALME-3M melanoma was over 100 µM in each case.
With `Cc1ccccc1NC(=O)C(=O)Cc1nc2ccccc2s1`, the TGI in the experiment with SN12C renal, in the experiment with SF-268 CNS, in the experiment with NCI-H23 lung, in the experiment on UACC-257 melanoma, with SW-620 colon and in the experiment with HOP-62 NSCLC was over 100 µM throughout. Also, the TGI in the experiment with RXF 393 renal, in the experiment on OVCAR-5 ovarian and in the experiment on MALME-3M melanoma was over 100 µM throughout.
As to `Nc1nc(N)c(-c2ccccc2)c(C(=O)Nc2ccc(Cl)c(Cl)c2)n1`, the TGI with SN12C renal, with SF-268 CNS, in the experiment with NCI-H23 lung, with UACC-257 melanoma, in the experiment on SW-620 colon and in the experiment with HOP-62 NSCLC was over 100 µM each time. Also, the TGI in the experiment with RXF 393 renal, in the experiment on OVCAR-5 ovarian and with MALME-3M melanoma was over 100 µM each time.
In the case of `O=C(O)/C(O)=C1/C=C(c2ccccc2)c2ccccc21`, the TGI worked out at 61.9 µM in the experiment with SN12C renal; 51.7 µM in the experiment on SF-268 CNS; 48.1 µM in the experiment on UACC-257 melanoma; 37.7 µM in the experiment on SW-620 colon; 55.2 µM with HOP-62 NSCLC; 35.6 µM in the experiment on RXF 393 renal. The TGI worked out at 72.2 µM with OVCAR-5 ovarian and 71.3 µM in the experiment with MALME-3M melanoma.
Regarding `C=C(CO)CC(O)c1ccccc1` (stereo not drawn), the TGI in the experiment on SN12C renal, in the experiment on SF-268 CNS, in the experiment on NCI-H23 lung, in the experiment with SW-620 colon, with HOP-62 NSCLC and in the experiment with RXF 393 renal was over 100 µM throughout. In the experiment with OVCAR-5 ovarian, this molecule returned a TGI of over 100 µM.
In the case of `CC1CC2C3CC(F)C4=CC(=O)C=CC4(C)C3(F)C(O)CC2(C)C1(O)C(=O)CO` (stereo not drawn), the TGI in the experiment on SF-268 CNS, in the experiment on NCI-H23 lung, with UACC-257 melanoma, in the experiment on SW-620 colon, in the experiment on HOP-62 NSCLC and in the experiment with RXF 393 renal was over 100 µM each time. In the experiment with MALME-3M melanoma, this molecule showed a TGI of over 100 µM.
As for `COc1cc(C2C(C(=O)O)=C(C)Oc3cc4c(cc32)OCO4)cc(OC)c1OC` (stereo not drawn), the TGI in the experiment on SN12C renal, in the experiment on NCI-H23 lung, in the experiment with UACC-257 melanoma, in the experiment with SW-620 colon, with RXF 393 renal and in the experiment on MALME-3M melanoma was over 100 µM each time.
Consider `CSc1s[s+]c(SC)c1[O-]`, for which the TGI was 52.5 µM with SN12C renal; 55.8 µM in the experiment with SF-268 CNS; 50.4 µM with NCI-H23 lung; 50.2 µM in the experiment on UACC-257 melanoma; 31.7 µM in the experiment with SW-620 colon; over 100 µM in the experiment on HOP-62 NSCLC. The TGI in the experiment on RXF 393 renal is 41.4 µM; in the experiment on OVCAR-5 ovarian, over 100 µM; in the experiment on MALME-3M melanoma, 40.6 µM.
Take `Cc1cccc(NC(=O)CC2C(=O)Nc3ccccc3S2(=O)=O)c1C` (stereo not drawn): the TGI with SN12C renal was over 100 µM; in the experiment on SF-268 CNS, over 100 µM; with NCI-H23 lung, 33.7 µM; with UACC-257 melanoma, over 100 µM; with SW-620 colon, 84.2 µM; with HOP-62 NSCLC, 52.8 µM. The figures for the TGI in the experiment with RXF 393 renal, with OVCAR-5 ovarian and with MALME-3M melanoma were 34.3 µM, over 100 µM and 45.1 µM, respectively.
For `COCCN1C2=CCCCC2=Nc2c(N)nc(N)nc21`, the TGI in the experiment on SN12C renal, in the experiment on SF-268 CNS, in the experiment on NCI-H23 lung, with UACC-257 melanoma, with HOP-62 NSCLC and with RXF 393 renal was over 100 µM each time. Moreover, the TGI with OVCAR-5 ovarian and with MALME-3M melanoma was over 100 µM in each case.
Regarding `COC(=O)C1CCc2c(OC)ccc(OC)c2C1=O` (stereo not drawn), the TGI in the experiment on NCI-H23 lung, in the experiment with UACC-257 melanoma, in the experiment on SW-620 colon, in the experiment with HOP-62 NSCLC, in the experiment with OVCAR-5 ovarian and with MALME-3M melanoma was over 100 µM throughout.
With `CNC(=O)OCc1nc(S(C)=O)n(C)c1COC(=O)NC` (stereo not drawn), the TGI with SN12C renal was over 100 µM; in the experiment on SF-268 CNS it was over 100 µM; with NCI-H23 lung, over 100 µM; in the experiment on UACC-257 melanoma it was over 100 µM; with SW-620 colon, over 46.4 µM; in the experiment with HOP-62 NSCLC, over 100 µM. Also, the TGI with RXF 393 renal, in the experiment with OVCAR-5 ovarian and in the experiment on MALME-3M melanoma was over 100 µM throughout.
Take `COc1ccc2cc(C(=O)/C=C/c3ccc(OC)c(OC)c3)ccc2c1`: the GI50 in the experiment with SN12C renal was 13.5 µM; in the experiment on SF-268 CNS, 19.2 µM; in the experiment on SW-620 colon, 4.21 µM; in the experiment on HOP-62 NSCLC, 18 µM; in the experiment on MALME-3M melanoma, over 100 µM. For the same molecule, the TGI in the experiment on SN12C renal is 32.6 µM; in the experiment with SF-268 CNS, 55.1 µM; in the experiment on SW-620 colon it was 27.1 µM; in the experiment on HOP-62 NSCLC it was 41.6 µM; in the experiment on MALME-3M melanoma it was over 100 µM.
`CCCCCCCCCCCCCCCCCC(=O)NCCCNCCCNC(=O)CCCCCCCCCCCCCCCCC`: the TGI in the experiment with SN12C renal, with SF-268 CNS, with NCI-H23 lung, in the experiment on UACC-257 melanoma, in the experiment on SW-620 colon and in the experiment on HOP-62 NSCLC was over 100 µM throughout. Further, the TGI in the experiment on OVCAR-5 ovarian and in the experiment with MALME-3M melanoma was over 100 µM each time.
On to `CN/N=C(\C)CC(=O)Nc1cccc(Cl)c1C`, for which the TGI in the experiment with SN12C renal, in the experiment with SF-268 CNS, with NCI-H23 lung, in the experiment on UACC-257 melanoma, in the experiment with HOP-62 NSCLC and in the experiment on RXF 393 renal was over 100 µM each time. Moreover, the TGI in the experiment with OVCAR-5 ovarian and in the experiment with MALME-3M melanoma was over 100 µM each time.
